Data published in patent publication US20120101100A1 (priority 2008, published 2012).
Where a name gives a salt, the structure may show the parent alone.

Each compound was assayed against S. aureus GyrB ATPase (Staphylococcus aureus, UniProt P0A0K8) (assay: S. aureus (SAU) GyrB ATPase inhibition, malachite green phosphate detection (E. coli GyrA + S. aureus GyrB)). Conditions: compound concentration of 1.0 μM unless otherwise noted; average value where assay was carried out more than once; read-out: S. aureus (SAU) GyrB ATPase % Inhibition.
S. aureus GyrB ATPase, sequence (P0A0K8 whole entry): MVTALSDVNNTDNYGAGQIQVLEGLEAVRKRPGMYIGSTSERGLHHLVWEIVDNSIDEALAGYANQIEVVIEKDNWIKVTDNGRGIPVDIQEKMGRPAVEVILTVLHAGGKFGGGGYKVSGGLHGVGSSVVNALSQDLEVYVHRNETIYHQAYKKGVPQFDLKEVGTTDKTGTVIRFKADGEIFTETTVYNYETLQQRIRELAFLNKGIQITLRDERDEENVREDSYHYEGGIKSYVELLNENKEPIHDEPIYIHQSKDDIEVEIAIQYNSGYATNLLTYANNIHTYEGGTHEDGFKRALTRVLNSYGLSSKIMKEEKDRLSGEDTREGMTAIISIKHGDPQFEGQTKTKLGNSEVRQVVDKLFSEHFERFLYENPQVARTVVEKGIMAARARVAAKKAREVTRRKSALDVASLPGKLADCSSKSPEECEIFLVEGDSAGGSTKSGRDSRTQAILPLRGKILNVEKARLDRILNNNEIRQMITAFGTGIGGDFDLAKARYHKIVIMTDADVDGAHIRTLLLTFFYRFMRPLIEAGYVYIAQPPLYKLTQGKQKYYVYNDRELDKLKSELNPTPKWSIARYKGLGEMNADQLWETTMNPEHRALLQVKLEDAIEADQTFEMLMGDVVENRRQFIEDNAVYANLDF
S. aureus GyrB ATPase, sequence (P0AES4 whole entry, further chain): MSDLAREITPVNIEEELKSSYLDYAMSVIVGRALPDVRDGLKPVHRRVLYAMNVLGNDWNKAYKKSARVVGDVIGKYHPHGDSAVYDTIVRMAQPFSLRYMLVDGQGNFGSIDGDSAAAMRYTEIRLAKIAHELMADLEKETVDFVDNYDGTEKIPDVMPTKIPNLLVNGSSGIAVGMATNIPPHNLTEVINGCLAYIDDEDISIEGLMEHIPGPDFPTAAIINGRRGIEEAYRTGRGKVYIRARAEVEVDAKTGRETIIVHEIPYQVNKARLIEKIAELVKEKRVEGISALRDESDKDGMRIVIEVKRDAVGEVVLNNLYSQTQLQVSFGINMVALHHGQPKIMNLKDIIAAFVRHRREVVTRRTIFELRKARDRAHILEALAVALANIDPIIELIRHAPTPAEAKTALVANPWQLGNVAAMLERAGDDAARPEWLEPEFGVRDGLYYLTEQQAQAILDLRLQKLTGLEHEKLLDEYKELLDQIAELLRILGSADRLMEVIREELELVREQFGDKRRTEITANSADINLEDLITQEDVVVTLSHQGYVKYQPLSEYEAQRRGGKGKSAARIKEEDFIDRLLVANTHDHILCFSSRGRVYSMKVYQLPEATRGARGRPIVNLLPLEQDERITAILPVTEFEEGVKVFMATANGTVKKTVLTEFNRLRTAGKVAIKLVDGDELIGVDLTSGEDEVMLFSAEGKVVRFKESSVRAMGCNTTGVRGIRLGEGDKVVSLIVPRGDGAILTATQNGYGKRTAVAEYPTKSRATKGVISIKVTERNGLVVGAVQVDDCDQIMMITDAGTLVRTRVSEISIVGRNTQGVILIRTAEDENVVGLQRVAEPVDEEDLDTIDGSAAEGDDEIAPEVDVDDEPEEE
Format: biochemical
Description: Compounds were tested for inhibition of GyrB ATPase activity using an ammonium molybdate/malachite green-based phosphate detection assay (Lanzetta, P. A., L. J. Alvarez, P. S. Reinach, and O. A. Candia, 1979, 100: 95-97). Assays were performed in multiwell plates in 100 μl reactions containing: 50 mM Hepes buffer pH 7.5, 75 mM ammonium acetate, 8.0 mM magnesium chloride, 1.0 mM ethylenediaminetetraacetic acid, 5% glycerol, 2 mM 1,4-Dithio-DL-threitol, 400 nM bovine serum albumin, 5 μg/ml sheared salmon sperm DNA, 1.25 nM E. coli GyrA, 1.25 nM S. aureus GyrB, 500 μM ATP, and compound in dimethylsulfoxide. Reactions were quenched with 150 μl of ammonium molybdate/malachite green detection reagent containing 1.2 mM malachite green hydrochloride, 8.5 mM ammonium molybdate tetrahydrate, and 1 M hydrochloric acid. Plates were read in an absorbance plate reader at 650 nm and percent inhibition values were calculated using dimethylsulfoxide (2%)-containing reactions as 0% inhibition and novobiocin-containing (2 μM) reactions as 100% inhibition controls. Compound potency was based on IC50 measurements determined from reactions performed in the presence of 10 different compound concentrations.

| SMILES | inhibition at 1 µM [%] |
| --- | --- |
| CCCNC(=O)Nc1cc(-c2nc(C(F)(F)F)cs2)c(-c2cc(-c3n[nH]c(=O)o3)cnc2OCCN2CCCC2)cn1 [Example 171] | 106 |
| CCNC(=O)Nc1cc(-c2nc(C(F)(F)F)cs2)c(-c2cc(-c3n[nH]c(=O)o3)cnc2OCCCC2CCCC2)cn1 [Example 220] | 91 |
| CCNC(=O)Nc1cc(-c2nc(C(F)(F)F)cs2)c(-c2cnc(OCCOC)c(-c3n[nH]c(=O)o3)c2)cn1 [Example 254] | 97 |
| CCNC(=O)Nc1cc(-c2nc(C(F)(F)F)cs2)c(-c2cncc(-c3nnc(NCCN(C)C)o3)c2)cn1 [Example 157] | 96 |
| CCNC(=O)Nc1cc(-c2nc(-c3cccc(OC)n3)cs2)c(-c2nc(-c3ncnn3C)c(-c3n[nH]c(=O)o3)s2)cn1 [Example 251, 1-ethyl-3-(4-(4-(6-methoxypyridin-2-yl)thiazol-2-yl)-5-(4-(1-methyl-1H-1,2,4-triazol-5-yl)-5-(5-oxo-4,5-dihydro-1,3,4-oxadiazol-2-yl)thiazol-2-yl)pyridin-2-yl)urea] | 99 |
| CCNC(=O)Nc1cc(-c2nc(-c3cnn(C)c3)cs2)c(-c2cnc(OC)c(-c3n[nH]c(=O)o3)c2)cn1 [Example 205] | 100 |
| CCNC(=O)Nc1cc(-c2nc(C(F)(F)F)cs2)c(-c2nc(-c3ncccn3)c(-c3n[nH]c(=O)o3)s2)cn1 [Example 36, 1-ethyl-3-(5-(5-(5-oxo-4,5-dihydro-1,3,4-oxadiazol-2-yl)-4-(pyrimidin-2-yl)thiazol-2-yl)-4-(4-(trifluoromethyl)thiazol-2-yl)pyridin-2-yl)urea] | 107 |
| CCNC(=O)Nc1cc(-c2nc(C(F)(F)F)cs2)c(-c2nc(-c3ncnn3C)c(-c3n[nH]c(=O)o3)s2)cn1 [Example 37, 1-ethyl-3-(5-(4-(1-mcthyl-1H-1,2,4-triazol-5-yl)-5-(5-oxo-4,5-dihydro-1,3,4-oxadiazol-2-yl)thiazol-2-yl)-4-(4-(trifluoromethyl)thiazol-2-yl)pyridin-2-yl)urea] | 112 |
| CCNC(=O)Nc1cc(-c2nc(C(F)(F)F)cs2)c(-c2cncc(C3=NCCO3)c2)cn1 [Example 26, 1-(5′-(4,5-Dihydrooxazol-2-yl)-4-(4-(trifluoromethyl)thiazol-2-yl)-3,3′-bipyridin-6-yl)-3-ethylurea] | 105 |
| CCNC(=O)Nc1cc(-c2nc(-c3ccccc3)cs2)c(-c2cc(-c3n[nH]c(=O)o3)cnc2CC)cn1 [Example 72, 1-ethyl-3-(2′-ethyl-5′-(5-hydroxy-1,3,4-oxadiazol-2-yl)-4-(4-phenylthiazol-2-yl)-3,3′-bipyridin-6-yl)urea] | 95 |
| CCNC(=O)Nc1cc(-c2nc(-c3cnn(C)c3)cs2)c(-c2cc(-c3n[nH]c(=O)o3)cnc2OC2CCOCC2)cn1 [Example 222] | 97 |
| CCNC(=O)Nc1cc(-c2nc(C(F)(F)F)c(CNC3CCCCC3)s2)c(-c2cncc(-c3n[nH]c(=O)o3)c2)cn1 [Example 52, 1-(4-(5-((cyclohexylamino)methyl)-4-(trifluoromethyl)thiazol-2-yl)-5′-(5-hydroxy-1,3,4-oxadiazol-2-yl)-3,3′-bipyridin-6-yl)-3-ethylurea hydrochloride] | 108 |
| CCNC(=O)Nc1cc(-c2nc(C(F)(F)F)cs2)c(-c2cc(-c3n[nH]c(=O)o3)cnc2OCCN(C)C)cn1 [Example 100, 1-(2′-(2-(Dimethylamino)ethoxy)-5′-(5-oxo-4,5-dihydro-1,3,4-oxadiazol-2-yl)-4-(4-(trifluoromethyl)thiazol-2-yl)-3,3′-bipyridin-6-yl)-3-ethylurea] | 98 |
| CCNC(=O)Nc1cc(-c2nc(C(F)(F)F)cs2)c(-c2cc(-c3n[nH]c(=O)o3)cnc2OC2CCNCC2)cn1 [Example 109, 1-Ethyl-3-{5′-(5-oxo-4,5-dihydro-1,3,4-oxadiazol-2-yl)-2′-(piperidin-4-yloxy)-4-[4-(trifluoromethyl)-1,3-thiazol-2-yl]-3,3′-bipyridin-6-yl}urea] | 98 |
| CCNC(=O)Nc1cc(-c2nc(-c3ccccn3)cs2)c(-c2nc(-c3ncccn3)c(-c3n[nH]c(=O)o3)s2)cn1 [Example 201] | 107 |
| O=C(Nc1cc(-c2nc(C(F)(F)F)cs2)c(-c2cncc(-c3n[nH]c(=O)o3)c2)cn1)NC1CC1 [Example 45, 1-cyclopropyl-3-(5′-(5-oxo-4,5-dihydro-1,3,4-oxadiazol-2-yl)-4-(4-(trifluoromethyl)thiazol-2-yl)-3,3′-bipyridin-6-yl)urea] | 103 |
| CCNC(=O)Nc1cc(-c2nc(C(F)(F)F)cs2)c(-c2cncc(-c3c[nH]nc3C)c2)cn1 [Example 132] | 92 |
| CCNC(=O)Nc1cc(-c2nc(C(F)(F)F)cs2)c(-c2cncc(-c3nnc(C(C)(C)OC(C)=O)o3)c2)cn1 [Example 264, 2-(5-(6′-(3-ethylureido)-4′-(4-(trifluoromethyl)thiazol-2-yl)-3,3′-bipyridin-5-yl)-1,3,4-oxadiazol-2-yl)propan-2-yl acetate] | 98 |
| CCNC(=O)Nc1cc(-c2nc(-c3ccccn3)cs2)c(-c2cncc(S(N)(=O)=O)c2)cn1 [Example 105, 6′-(3-Ethylureido)-4′-(4-(pyridin-2-yl)thiazol-2-yl)-3,3′-bipyridine-5-sulfonamide] | 101 |
| CCNC(=O)Nc1cc(-c2nc(C(F)(F)F)cs2)c(-c2cc(-c3n[nH]c(=O)o3)cnc2OC2CCCC2)cn1 [Example 217] | 95 |
| CCNC(=O)Nc1cc(-c2nc(C(F)(F)F)cs2)c(-c2cncc(-c3nnc(C4CC4)o3)c2)cn1 [Example 166, 1-(5′-(5-Cyclopropyl-1,3,4-oxadiazol-2-yl)-4-(4-(trifluoromethyl)thiazol-2-yl)-3,3′-bipyridin-6-yl)-3-ethylurea] | 72 |
| CCNC(=O)Nc1cc(-c2nc(C(F)(F)F)cs2)c(-c2cncc(-c3nnc(C(=O)N(C)C)o3)c2)cn1 [Example 274, 5-(6′-(3-ethylureido)-4′-(4-(trifluoromethyl)thiazol-2-yl)-3,3′-bipyridin-5-yl)-N,N-dimethyl-1,3,4-oxadiazole-2-carboxamide] | 99 |
| CCNC(=O)Nc1cc(-c2nc(C(F)(F)F)cs2)c(-c2cncc(-c3nnc(C(F)F)[nH]3)c2)cn1 [Example 256, 1-(5′-(5-(difluoromethyl)-4H-1,2,4-triazol-3-yl)-4-(4-(trifluoromethyl)thiazol-2-yl)-3,3′-bipyridin-6-yl)-3-ethylurea] | 103 |
| CCNC(=O)Nc1cc(-c2nc(C(F)(F)F)cs2)c(-c2cc(-c3n[nH]c(=O)o3)cnc2OC2CC(C)(C)N(C)C(C)(C)C2)cn1 [Example 218] | 99 |
| CCNC(=O)Nc1cc(-c2nc(C(F)(F)F)cs2)c(-c2cc(-c3nnc(C)o3)nc(N3CCOCC3)c2)cn1 [Example 87, 1-ethyl-3-(2′-morpholino-6′-(5-methyl-1,3,4-oxadiazol-2-yl)-4-(4-(trifluoromethyl)thiazol-2-yl)-3,4′-bipyridin-6-yl)urea] | 99 |
| CCNC(=O)Nc1cc(-c2nnc(-c3ccccc3)o2)c(-c2nc(-c3n[nH]c(=O)o3)cs2)cn1 [Example 193] | 89 |
| CCNC(=O)Nc1cc(-c2nc(C(F)(F)F)cs2)c(-c2cc(OCC)nc(-c3n[nH]c(=O)o3)c2)cn1 [Example 75, 1-(2′-ethoxy-6′-(5-oxo-4,5-dihydro-1,3,4-oxadiazol-2-yl)-4-(4-(trifluoromethyl)thiazol-2-yl)-3,4′-bipyridin-6-yl)-3-ethylurea] | 99 |
